# Assay results published in article PMC3163380, “Design, Synthesis and Biological Evaluation of Novel Pyrimido[4,5-d]pyrimidine CDK2 Inhibitors as Anti-Tumor Agents” (Scientia Pharmaceutica, 2011).
# Key:
# CDK4/CyclinD = CDK4/CyclinD (Homo sapiens, UniProt P11802); assay: CDK4/CyclinD inhibition assay; format: biochemical; settings: mean of at least two independent experiments
# MCF7 = assay: NCI primary anti-cancer assay (SRB), MCF7; format: cell-based; settings: Homo sapiens; 10^−5M; Breast Cancer MCF7; read-out: Growth Inhibition %
# Description: (§1) Evaluation of anti-cancer activities on pyrimido[4,5-d]pyrimidine derivatives were performed at the National Cancer Institute (NCI) USA. First the newly synthesized compounds have been evaluated in primary anti-cancer assay at 10^−5M concentration against 60 human tumor cell lines then the active compounds were tested at 5 different concentrations against the same 60 human tumor cell lines. The biological data for the newly synthesized compounds are compiled in table 2
# (§2) The cytotoxic activity was measured in vitro for the newly synthesized compounds using the SulfoRhodamine-B stain (SRB) assay using the method of Skehan. Cells were plated in 96-multiwell microtiter plate (10^4 cells/well) for 24 h before treatment with the compound(s) to allow attachment of cell to the wall of the plate. Tested compounds were dissolved in DMSO and diluted with saline to the appropriate volume. Triplicate wells were prepared for each individual dose. Monolayer cells were incubated with the compound(s) for 48 h at 37 °C and in atmosphere of 5% CO2. After 48 h, cells were fixed, washed, and stained for 30 min with 0.4% (wt/vol) with SRB dissolved in 1% acetic acid. Unbound dye was removed by four washes with 1% acetic acid, and attached stain was recovered with Tris-EDTA buffer. Color intensity was measured in an ELISA reader. […]
# CDK2/CyclinA = molecular target: T1, CDK2/CyclinA (Homo sapiens, UniProt P24941); assay: CDK2/cyclinA enzymatic activity inhibition assay (32P-ATP, histone H1); format: biochemical; settings: mean of at least two independent experiments
# T1 construct: hexa-histidine (N); made in house; host or cells: sf21 insect cells (baculovirus)
# UACC-257 = assay: NCI primary anti-cancer assay (SRB), UACC-257; format: cell-based; settings: Homo sapiens; 10^−5M; Melanoma UACC-257; read-out: Growth Inhibition %
# Description: as §1
# (§3) The cytotoxic activity was measured in vitro for the newly synthesized compounds using the SulfoRhodamine-B stain (SRB) assay using the method of Skehan. Cells were plated in 96-multiwell microtiter plate (10^4 cells/well) for 24 h before treatment with the compound(s) to allow attachment of cell to the wall of the plate. Tested compounds were dissolved in DMSO and diluted with saline to the appropriate volume. Triplicate wells were prepared for each individual dose. Monolayer cells were incubated with the compound(s) for 48 h at 37 °C and in atmosphere of 5% CO2. After 48 h, cells were fixed, washed, and stained for 30 min with 0.4% (wt/vol) with SRB dissolved in 1% acetic acid. Unbound dye was removed by four washes with 1% acetic acid, and attached stain was recovered with Tris-EDTA buffer. Color intensity was measured in an ELISA reader. The relation between surviving fraction and drug concentration is plotted to get the survival curve for tumor cell line after the specified time.
# K-562 = assay: NCI primary anti-cancer assay (SRB), K-562; format: cell-based; settings: Homo sapiens, K562; 10^−5M; Leukemia K-562; read-out: Growth Inhibition %
# Description: as §1, §3
# HOP-92 = assay: NCI primary anti-cancer assay (SRB), HOP-92; format: cell-based; settings: Homo sapiens; 10^−5M; Non-Small Cell Lung Cancer HOP-92; read-out: Growth Inhibition %
# Description: as §1, §3
# [1] = molecular target: T2, human EGFR tyrosine kinase domain (Homo sapiens, UniProt P00533); assay: EGFR tyrosine kinase inhibition assay; format: biochemical; settings: mean of at least two independent experiments
# T2 construct: C-terminal human EGFR tyrosine kinase domain
# A549/ATCC = assay: NCI primary anti-cancer assay (SRB), A549/ATCC; format: cell-based; settings: Homo sapiens; 10^−5M; Non-Small Cell Lung Cancer A549/ATCC; read-out: Growth Inhibition %
# Description: as §1, §3
# MDA-MB-231/ATCC = assay: NCI primary anti-cancer assay (SRB), MDA-MB-231/ATCC; format: cell-based; settings: Homo sapiens; 10^−5M; Breast Cancer MDA-MB-231/ATCC; read-out: Growth Inhibition %
# Description: as §1, §3
# UO-31 = assay: NCI primary anti-cancer assay (SRB), UO-31; format: cell-based; settings: Homo sapiens; 10^−5M; Renal Cancer UO-31; read-out: Growth Inhibition %
# Description: as §1, §3
# OVCAR-8 = assay: NCI primary anti-cancer assay (SRB), OVCAR-8; format: cell-based; settings: Homo sapiens; 10^−5M; Ovarian Cancer OVCAR-8; read-out: Growth Inhibition %
# Description: as §1, §3
# IGROV1 = assay: NCI primary anti-cancer assay (SRB), IGROV1; format: cell-based; settings: Homo sapiens, IGROV-1; 10^−5M; Ovarian Cancer IGROV1; read-out: Growth Inhibition %
# Description: as §1, §3
# RPMI-8226 = assay: NCI primary anti-cancer assay (SRB), RPMI-8226; format: cell-based; settings: Homo sapiens; 10^−5M; Leukemia RPMI-8226; read-out: Growth Inhibition %
# Description: as §1, §3
# T-47D = assay: NCI primary anti-cancer assay (SRB), T-47D; format: cell-based; settings: Homo sapiens, T47D; 10^−5M; Breast Cancer T-47D; read-out: Growth Inhibition %
# Description: as §1, §3
# RXF 393 = assay: NCI primary anti-cancer assay (SRB), RXF 393; format: cell-based, human; settings: Renal Cancer RXF 393; for inhibition at 10 µM: Homo sapiens, RXF 393, 10^−5M, read-out: Growth Inhibition %
# Description: as §1, §3
# HL-60(TB) = assay: NCI primary anti-cancer assay (SRB), HL-60(TB); format: cell-based; settings: Homo sapiens; 10^−5M; Leukemia HL-60(TB); read-out: Growth Inhibition %
# Description: as §1, §3
# SNB-75 = assay: NCI primary anti-cancer assay (SRB), SNB-75; format: cell-based; settings: Homo sapiens; 10^−5M; CNS Cancer SNB-75; read-out: Growth Inhibition %
# Description: as §1, §3
# [2] = test system: 60 human tumor cell lines; assay: NCI primary anti-cancer assay, summary over tumor cell lines; format: cell-based; settings: 10^−5M, Non-small cell lung cancer, Ovarian cancer, Leukemia and Melanoma lines / different tumor cell lines, read-out: growth inhibitions (range over cell lines)
# Description: as §1, §3
# MOLT-4 = assay: NCI primary anti-cancer assay (SRB), MOLT-4; format: cell-based; settings: Homo sapiens; 10^−5M; Leukemia MOLT-4; read-out: Growth Inhibition %
# Description: as §1, §3
# BT-549 = assay: NCI primary anti-cancer assay (SRB), BT-549; format: cell-based; settings: Homo sapiens; 10^−5M; Breast Cancer BT-549; read-out: Growth Inhibition %
# Description: as §1, §2
# SF-539 = assay: NCI primary anti-cancer assay (SRB), SF-539; format: cell-based; settings: Homo sapiens; 10^−5M; CNS Cancer SF-539; read-out: Growth Inhibition %
# Description: as §1, §3
# HS 578T = assay: NCI primary anti-cancer assay (SRB), HS 578T; format: cell-based; settings: Homo sapiens; 10^−5M; Breast Cancer HS 578T; read-out: Growth Inhibition %
# Description: as §1, §3
# Chain of CDK4/CyclinD (P11802 whole entry, species assumed): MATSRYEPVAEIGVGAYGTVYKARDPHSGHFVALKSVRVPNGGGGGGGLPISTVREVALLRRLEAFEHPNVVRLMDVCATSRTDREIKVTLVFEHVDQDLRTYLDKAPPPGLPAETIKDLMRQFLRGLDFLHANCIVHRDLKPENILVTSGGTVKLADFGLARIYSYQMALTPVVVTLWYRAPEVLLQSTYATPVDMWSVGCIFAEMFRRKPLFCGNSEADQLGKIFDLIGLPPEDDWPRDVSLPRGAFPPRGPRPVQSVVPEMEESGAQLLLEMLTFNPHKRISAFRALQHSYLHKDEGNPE
# Chain of CDK4/CyclinD (P24385 whole entry partner, species assumed): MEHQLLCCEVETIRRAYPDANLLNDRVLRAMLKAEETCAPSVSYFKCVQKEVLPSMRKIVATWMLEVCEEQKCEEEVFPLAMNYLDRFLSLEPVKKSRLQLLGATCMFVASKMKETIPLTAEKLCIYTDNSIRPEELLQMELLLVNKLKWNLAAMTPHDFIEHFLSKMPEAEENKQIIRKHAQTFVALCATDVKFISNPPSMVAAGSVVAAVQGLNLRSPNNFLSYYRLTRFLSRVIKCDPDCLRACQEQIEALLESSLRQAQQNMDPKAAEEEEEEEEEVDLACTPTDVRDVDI
# T2 sequence (P00533 712-979 limits assumed): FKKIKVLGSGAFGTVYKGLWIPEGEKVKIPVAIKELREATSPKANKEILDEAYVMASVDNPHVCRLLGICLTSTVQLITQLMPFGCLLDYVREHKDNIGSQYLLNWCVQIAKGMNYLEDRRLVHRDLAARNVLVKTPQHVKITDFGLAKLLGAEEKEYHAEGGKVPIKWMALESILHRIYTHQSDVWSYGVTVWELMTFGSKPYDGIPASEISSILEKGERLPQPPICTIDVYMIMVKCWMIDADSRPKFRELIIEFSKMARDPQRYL
Structure (SMILES),IC50 (CDK4/CyclinD) [µM],IC50 CDK4/CyclinD (CDK4/CyclinD),IC50 (CDK2/CyclinA) [µM],inhibition at 10 µM (UACC-257) [%],melting point [°C],inhibition at 10 µM (K-562) [%],inhibition at 10 µM (HOP-92) [%],IC50 [1] [µM],inhibition at 10 µM (A549/ATCC) [%],inhibition at 10 µM (MDA-MB-231/ATCC) [%],inhibition at 10 µM (UO-31) [%],inhibition at 10 µM (OVCAR-8) [%],inhibition at 10 µM (IGROV1) [%],inhibition at 10 µM (RPMI-8226) [%],inhibition at 10 µM (T-47D) [%],inhibition at 10 µM (RXF 393) [%],inhibition at 10 µM (HL-60(TB)) [%],inhibition at 10 µM (SNB-75) [%],inhibition at 10 µM (MOLT-4) [%],other results
"O=c1[nH]c(Nc2ccc(S(=O)(=O)O)cc2)nc2nc(Nc3ccc(NC(=S)Nc4ccccc4)cc3)nc(-c3ccc(O)cc3O)c12 [Compound 7g, 4-{[5-(2,4-Dihydroxyphenyl)-4-oxo-7-({4-[(phenylcarbamothioyl)amino]phenyl}amino)-3,4-dihydropyrimido[4,5-d]pyrimidin-2-yl]amino}benzenesulfonic acid]",5.21,very poor activity,6.5,32.7,> 300,20.1,29.1,7.3,–,–,–,–,–,–,–,–,–,–,–,inhibition at 10 µM (MCF7): 33.3%
"O=c1[nH]c(Nc2cccc(Cl)c2)nc2nc(Nc3ccc(NC(=S)Nc4ccccc4)cc3)nc(-c3ccc(O)cc3O)c12 [Compound 7d, 1-[4-({7-[(3-Chlorophenyl)amino]-4-(2,4-dihydroxyphenyl)-5-oxo-5,6-dihydro-pyrimido[4,5-d]pyrimidin-2-yl}amino)phenyl]-3-phenylthiourea]",6.88,very poor activity,> 10,79.5,> 300,–,–,> 10,44.7,21.4,30.7,26.8,39.7,30.4,–,–,–,–,–,–
"O=c1[nH]c(SCc2ccccc2)nc2nc(Nc3ccc(NC(=S)Nc4ccccc4)cc3)nc(-c3ccc(O)cc3O)c12 [Compound 6a, 1-(4-{[7-(Benzylsulfanyl)-4-(2,4-dihydroxyphenyl)-5-oxo-5,6-dihydro-pyrimido[4,5-d]pyrimidin-2-yl]amino}phenyl)-3-phenylthiourea]",> 10,no activity,5,–,> 300,–,103,9.3,–,–,–,–,–,–,26.9,33.8,–,–,–,–
"Cc1cc(C)nc(NS(=O)(=O)c2ccc(Nc3nc(C)c4c(=O)[nH]c(Nc5cccc(Cl)c5)nc4n3)cc2)n1 [Compound 7f, 4-({7-[(3-Chlorophenyl)amino]-4-methyl-5-oxo-5,6-dihydropyrimido[4,5-d]pyrimidin-2-yl}amino)-N-(4,6-dimethylpyrimidin-2-yl)benzenesulfonamide]",0.86,–,0.05,57.9,> 300,26.5,34.8,> 10,52,30.4,40.3,21.8,54.4,58.9,–,–,21.6,28.5,–,inhibition at 10 µM [2]: 50 to 70%
"Cc1cc(C)nc(NS(=O)(=O)c2ccc(Nc3nc(C)c4c(=O)[nH]c(NCc5ccccc5)nc4n3)cc2)n1 [Compound 7c, 4-{[7-(Benzylamino)-4-methyl-5-oxo-5,6-dihydropyrimido[4,5-d]pyrimidin-2-yl]amino}-N-(4,6-dimethylpyrimidin-2-yl)benzenesulfonamide]",> 10,no activity,2.6,71.4,–,32.8,–,6.6,64.4,–,39.5,–,61.7,50.7,23.4,–,23.1,43.1,22.6,inhibition at 10 µM [2]: 50 to 70%
"Cc1cc(C)nc(NS(=O)(=O)c2ccc(Nc3nc(C)c4c(=O)[nH]c(SCc5ccccc5)nc4n3)cc2)n1 [Compound 6d, 4-{[7-(Benzylsulfanyl)-4-methyl-5-oxo-5,6-dihydropyrimido[4,5-d]pyrimidin-2-yl]amino}-N-(4,6-dimethylpyrimidin-2-yl)benzenesulfonamide]",0.66,–,2.5,–,> 300,–,27,7.8,21.2,–,–,–,–,–,–,–,–,–,43.4,–
"Cc1cc(C)nc(NS(=O)(=O)c2ccc(Nc3nc(-c4ccc(O)cc4O)c4c(=O)[nH]c(SCc5ccccc5)nc4n3)cc2)n1 [Compound 6b, 4-{[7-(Benzylsulfanyl)-4-(2,4-dihydroxyphenyl)-5-oxo-5,6-dihydropyrimido[4,5-d]pyrimidin-2-yl]amino}-N-(4,6-dimethylpyrimidin-2-yl)benzenesulfonamide]",2.14,–,2.8,–,> 300,20.1,–,5.5,–,–,–,38.7,30.7,–,–,–,–,–,–,inhibition at 10 µM (BT-549): 29.1%
"Cc1nc(Nc2ccc(NC(=S)Nc3ccccc3)cc2)nc2nc(SCc3ccccc3)[nH]c(=O)c12 [Compound 6c, 1-(4-{[7-(Benzylsulfanyl)-4-methyl-5-oxo-5,6-dihydropyrimido[4,5-d]pyrimidin-2-yl]amino}-phenyl)-3-phenylthiourea]",3.11,–,1.5,25.2,> 300,27.9,–,> 10,42.1,23.1,–,–,34.3,33,–,124,24,–,–,inhibition at 10 µM (SF-539): 36.7%; Growth Inhibition % (RXF 393; 10^−5M): 124.01%
"Cc1cc(C)nc(NS(=O)(=O)c2ccc(Nc3nc(C)c4c(=O)[nH]c(Nc5ccc(S(=O)(=O)O)cc5)nc4n3)cc2)n1 [Compound 7i, 4-{[7-({4-[(4,6-Dimethylpyrimidin-2-yl)sulfamoyl]phenyl}amino)-5-methyl-4-oxo-3,4-dihydro-pyrimido[4,5-d]pyrimidin-2-yl]amino}benzenesulfonic acid]",> 10,no activity,> 10,–,> 300,–,–,8.1,39.1,–,30.6,–,–,–,30.1,–,–,23.2,–,inhibition at 10 µM (HS 578T): 26.2%
"Cc1nc(Nc2ccc(NC(=S)Nc3ccccc3)cc2)nc2nc(Nc3cccc(Cl)c3)[nH]c(=O)c12 [Compound 7e, 1-[4-({7-[(3-Chlorophenyl)amino]-4-methyl-5-oxo-5,6-dihydropyrimido[4,5-d]pyrimidin-2-yl}amino)phenyl]-3-phenylthiourea]",2.55,–,0.25,–,–,28.2,39.6,4.9,–,–,–,–,–,42.8,–,113,42.9,–,35,inhibition at 10 µM (SF-539): 23.5%; inhibition at 10 µM (HS 578T): 32.9%
